The values that follow come from patent US20120184517A1, “TREATMENT OF DISEASES WITH ALTERED SMOOTH MUSCLE CONTRACTILITY” (priority 2009, published 2012).

For series [1] the following is noted: cited from earlier work.
For series [2], the system named is CD4+ and CD8+ human T lymphocyte. As to conditions: dose-dependent; cited from earlier work.
Series [3] addresses BKCa channel (Homo sapiens, UniProt Q12791). As to the kind of experiment: Outside-out single channel recordings of cultured human VSMC. More on the design: Human vascular smooth muscle cells (VSMC) grown in vitro express BKCa channels; endogenous in cells; host or cells: cultured human vascular smooth muscle cells (outside-out patches). It is filed as cell-based.
In series [4] the target is mitogen- and stress-activated protein kinase 1 (MSK-1) (Homo sapiens, UniProt O75582). Particulars: 20 μM; cited from earlier work.
Chain of mitogen- and stress-activated protein kinase 1 (MSK-1) (O75582 whole entry, species assumed): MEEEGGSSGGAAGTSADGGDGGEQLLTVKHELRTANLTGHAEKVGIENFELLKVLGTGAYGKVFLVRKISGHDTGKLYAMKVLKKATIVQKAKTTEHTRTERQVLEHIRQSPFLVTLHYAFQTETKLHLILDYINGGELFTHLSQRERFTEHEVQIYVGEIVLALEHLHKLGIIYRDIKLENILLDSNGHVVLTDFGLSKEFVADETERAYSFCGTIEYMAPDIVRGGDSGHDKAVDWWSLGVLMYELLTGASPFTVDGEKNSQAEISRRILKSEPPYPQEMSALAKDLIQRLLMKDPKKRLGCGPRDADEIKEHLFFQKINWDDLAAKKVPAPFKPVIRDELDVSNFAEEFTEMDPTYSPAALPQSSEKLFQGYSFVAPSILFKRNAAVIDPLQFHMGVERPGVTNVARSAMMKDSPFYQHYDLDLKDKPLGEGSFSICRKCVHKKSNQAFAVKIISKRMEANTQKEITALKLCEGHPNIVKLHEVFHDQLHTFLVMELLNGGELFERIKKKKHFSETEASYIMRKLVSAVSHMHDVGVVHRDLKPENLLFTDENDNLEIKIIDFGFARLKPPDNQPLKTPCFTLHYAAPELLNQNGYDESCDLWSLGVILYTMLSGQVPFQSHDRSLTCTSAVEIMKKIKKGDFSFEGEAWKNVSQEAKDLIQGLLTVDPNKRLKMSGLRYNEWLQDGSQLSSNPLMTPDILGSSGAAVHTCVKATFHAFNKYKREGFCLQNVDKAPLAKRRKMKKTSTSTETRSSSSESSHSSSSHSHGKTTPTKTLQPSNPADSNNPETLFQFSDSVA
Series [5] concerns the target Akt (Homo sapiens, UniProt P31749). Particulars: 20 μM; cited from earlier work.
The target in series [6] is PKCδ (Homo sapiens, UniProt Q05655). Particulars: cited from earlier work.
Chain of PKCδ (Q05655 whole entry): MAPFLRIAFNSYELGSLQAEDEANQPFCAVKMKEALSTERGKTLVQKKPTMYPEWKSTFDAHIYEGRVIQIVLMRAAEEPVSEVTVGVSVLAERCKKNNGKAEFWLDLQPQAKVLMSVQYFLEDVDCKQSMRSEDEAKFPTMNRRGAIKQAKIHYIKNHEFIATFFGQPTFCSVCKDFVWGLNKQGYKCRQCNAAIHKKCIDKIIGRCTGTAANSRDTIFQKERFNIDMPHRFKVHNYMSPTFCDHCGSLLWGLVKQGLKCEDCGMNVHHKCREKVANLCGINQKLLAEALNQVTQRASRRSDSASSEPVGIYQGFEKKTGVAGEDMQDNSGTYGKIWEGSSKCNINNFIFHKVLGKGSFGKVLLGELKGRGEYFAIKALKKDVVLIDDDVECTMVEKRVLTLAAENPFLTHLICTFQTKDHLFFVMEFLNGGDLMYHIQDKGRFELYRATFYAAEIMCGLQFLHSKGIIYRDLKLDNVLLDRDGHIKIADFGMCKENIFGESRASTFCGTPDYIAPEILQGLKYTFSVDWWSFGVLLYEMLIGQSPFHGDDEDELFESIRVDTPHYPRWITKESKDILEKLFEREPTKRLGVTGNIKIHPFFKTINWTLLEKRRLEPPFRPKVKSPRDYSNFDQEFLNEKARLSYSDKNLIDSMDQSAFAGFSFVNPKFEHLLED
Series [7] concerns the target T1, BK currents in tracheal smooth muscle (Mus musculus, UniProt Q08460).
T1 construct: murine tracheal smooth muscle cells were acutely isolated and whole cell patch clamped; endogenous in cells; host or cells: acutely isolated murine tracheal smooth muscle cells
As to the kind of experiment: Whole cell patch clamp of acutely isolated tracheal smooth muscle cells. Further details: unit of the concentration uncertain. The format is cell-based, murine. As to conditions: rottlerin (1 (unit uncertain)), FIG. 11A. From the text: In this experiment, murine tracheal smooth muscle cells were acutely isolated and whole cell patch clamped as previously described (Zakharov, S. et al., (2005) J Biol Chem 280, 30882-30887).
Murine tracheal smooth muscle cells were isolated using the following protocol. Trachea were removed, cut longitudinally, the epithelium removed (brushing with sterile cotton bud) and the cartilage removed by cutting. The isolated trachea were dissected in culture medium and cut into several pieces (1-2 mm^2). After addition of 0.5 mg/ml papain (Roche, Nutley, N.J.) and 1 mg/ml dithiothreitol, the cells were dissociated at 37° C. for 20 minutes, gently shaking, followed by the addition of 0.1 mg/ml liberase enzyme 2 (Roche, Nutley, N.J.) for 30 minutes at 37° C. (5% CO2). The suspension was then pipetted gently several times to disburse cells, the cell suspension strained via a nylon cell strainer, and the suspension was gently triturated to disburse single cells. The cell suspension was then centrifuged at 700×g for 5 minutes and the pellet resuspended in 500 μl Krebs solution. The cells were plated onto laminin-coated tissue culture dishes. BK currents were recorded using whole-cell and outside-out macropatches.
In general terms: The patch-clamp technique gives a direct electrical read-out from membranes.

The test system of series [8] is rats. As to conditions: 10-20 mg/kg/day×6 days; cited from earlier work.
Series [9] deals with T2, recombinant BK (mSlo1) (Mus musculus, UniProt Q08460).
T2 construct: expressed in transfected cells
T2 sequence (Q08460 whole entry): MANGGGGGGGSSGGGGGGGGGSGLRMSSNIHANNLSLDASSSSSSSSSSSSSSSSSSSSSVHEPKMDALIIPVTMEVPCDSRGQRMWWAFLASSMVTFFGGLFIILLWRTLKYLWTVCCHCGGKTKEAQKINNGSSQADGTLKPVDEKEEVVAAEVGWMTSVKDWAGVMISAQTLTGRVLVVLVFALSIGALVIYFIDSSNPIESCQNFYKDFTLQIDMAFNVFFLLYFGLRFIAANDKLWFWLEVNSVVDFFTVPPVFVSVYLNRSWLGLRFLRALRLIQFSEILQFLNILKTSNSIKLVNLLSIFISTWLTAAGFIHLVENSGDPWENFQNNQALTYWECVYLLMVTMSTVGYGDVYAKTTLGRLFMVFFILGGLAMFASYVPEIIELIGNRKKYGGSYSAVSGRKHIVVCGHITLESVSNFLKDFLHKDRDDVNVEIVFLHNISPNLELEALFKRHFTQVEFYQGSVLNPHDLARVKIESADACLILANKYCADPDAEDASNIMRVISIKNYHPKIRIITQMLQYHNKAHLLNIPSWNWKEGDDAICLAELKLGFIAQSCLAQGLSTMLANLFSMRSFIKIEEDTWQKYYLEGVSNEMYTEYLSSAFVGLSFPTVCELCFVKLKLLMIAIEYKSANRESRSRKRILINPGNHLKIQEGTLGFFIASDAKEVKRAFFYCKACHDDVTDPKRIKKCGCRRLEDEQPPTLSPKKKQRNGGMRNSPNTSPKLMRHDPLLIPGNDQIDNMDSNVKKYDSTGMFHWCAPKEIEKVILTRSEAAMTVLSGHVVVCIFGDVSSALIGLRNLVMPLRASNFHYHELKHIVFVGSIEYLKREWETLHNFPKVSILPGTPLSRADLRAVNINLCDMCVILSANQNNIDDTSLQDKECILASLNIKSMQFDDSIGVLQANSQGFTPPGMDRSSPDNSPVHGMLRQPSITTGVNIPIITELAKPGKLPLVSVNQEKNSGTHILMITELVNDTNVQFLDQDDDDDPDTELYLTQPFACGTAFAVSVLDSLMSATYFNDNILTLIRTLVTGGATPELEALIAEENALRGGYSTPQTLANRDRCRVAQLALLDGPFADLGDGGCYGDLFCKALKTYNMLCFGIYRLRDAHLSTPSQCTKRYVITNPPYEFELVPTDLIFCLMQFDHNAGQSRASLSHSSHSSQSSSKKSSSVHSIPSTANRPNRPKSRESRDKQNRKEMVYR
The series can be described thus: Cell-free outside-out/inside-out patch single channel recordings from HEK cells. It is filed as biochemical, murine.
Experimental: Ca^2+ was maintained at 0 (virtual; actual <20 nM) through dialysis using a patch pipette.

Series [10] concerns the target PKCα (Homo sapiens, UniProt P17252). As to conditions: rottlerin 20 μM, 0.1 mM ATP, phosphatidylserine; cited from earlier work.
Series [11] deals with glutamate-aspartate transporter (GLAST) (Homo sapiens, UniProt P43003). Particulars: cited from earlier work.
Chain of glutamate-aspartate transporter (GLAST) (P43003 whole entry, species assumed): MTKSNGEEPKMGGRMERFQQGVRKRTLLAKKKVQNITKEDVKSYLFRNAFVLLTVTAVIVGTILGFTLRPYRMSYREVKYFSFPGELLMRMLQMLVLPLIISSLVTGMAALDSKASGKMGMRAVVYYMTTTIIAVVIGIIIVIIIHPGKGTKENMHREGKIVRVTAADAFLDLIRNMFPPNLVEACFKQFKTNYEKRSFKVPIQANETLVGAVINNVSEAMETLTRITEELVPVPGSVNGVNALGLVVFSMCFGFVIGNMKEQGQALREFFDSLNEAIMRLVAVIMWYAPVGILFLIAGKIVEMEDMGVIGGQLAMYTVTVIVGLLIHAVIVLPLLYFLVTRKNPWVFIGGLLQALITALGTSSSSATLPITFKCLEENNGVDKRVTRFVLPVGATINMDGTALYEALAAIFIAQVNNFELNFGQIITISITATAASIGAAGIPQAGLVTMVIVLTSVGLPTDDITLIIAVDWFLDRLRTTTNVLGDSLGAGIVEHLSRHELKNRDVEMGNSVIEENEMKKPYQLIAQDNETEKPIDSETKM
Series [12] concerns guinea pigs. Particulars: 10-20 mg/kg/day×6 days; cited from earlier work.
In series [13] the test system is OVA-sensitized mice. As to the kind of experiment: OVA-asthma model, single i.v. dose before airway resistance measurement. The format is in vivo. The method, then: Groups of mice received an I.P. injection of OVA/Alum complex on days 0 and 7 and on alternate days 14-22, a 20 minute aerosol challenge of either PBS or 2% (w/v) OVA in PBS, using an ultrasonic nebulizer (FIG. 22A).

pIC50: −log10 of the molar value. Converted amounts (≈) assume the structure as drawn. “Also recorded” adds a separate entry of the source.

Chain of BKCa channel (Q12791 whole entry): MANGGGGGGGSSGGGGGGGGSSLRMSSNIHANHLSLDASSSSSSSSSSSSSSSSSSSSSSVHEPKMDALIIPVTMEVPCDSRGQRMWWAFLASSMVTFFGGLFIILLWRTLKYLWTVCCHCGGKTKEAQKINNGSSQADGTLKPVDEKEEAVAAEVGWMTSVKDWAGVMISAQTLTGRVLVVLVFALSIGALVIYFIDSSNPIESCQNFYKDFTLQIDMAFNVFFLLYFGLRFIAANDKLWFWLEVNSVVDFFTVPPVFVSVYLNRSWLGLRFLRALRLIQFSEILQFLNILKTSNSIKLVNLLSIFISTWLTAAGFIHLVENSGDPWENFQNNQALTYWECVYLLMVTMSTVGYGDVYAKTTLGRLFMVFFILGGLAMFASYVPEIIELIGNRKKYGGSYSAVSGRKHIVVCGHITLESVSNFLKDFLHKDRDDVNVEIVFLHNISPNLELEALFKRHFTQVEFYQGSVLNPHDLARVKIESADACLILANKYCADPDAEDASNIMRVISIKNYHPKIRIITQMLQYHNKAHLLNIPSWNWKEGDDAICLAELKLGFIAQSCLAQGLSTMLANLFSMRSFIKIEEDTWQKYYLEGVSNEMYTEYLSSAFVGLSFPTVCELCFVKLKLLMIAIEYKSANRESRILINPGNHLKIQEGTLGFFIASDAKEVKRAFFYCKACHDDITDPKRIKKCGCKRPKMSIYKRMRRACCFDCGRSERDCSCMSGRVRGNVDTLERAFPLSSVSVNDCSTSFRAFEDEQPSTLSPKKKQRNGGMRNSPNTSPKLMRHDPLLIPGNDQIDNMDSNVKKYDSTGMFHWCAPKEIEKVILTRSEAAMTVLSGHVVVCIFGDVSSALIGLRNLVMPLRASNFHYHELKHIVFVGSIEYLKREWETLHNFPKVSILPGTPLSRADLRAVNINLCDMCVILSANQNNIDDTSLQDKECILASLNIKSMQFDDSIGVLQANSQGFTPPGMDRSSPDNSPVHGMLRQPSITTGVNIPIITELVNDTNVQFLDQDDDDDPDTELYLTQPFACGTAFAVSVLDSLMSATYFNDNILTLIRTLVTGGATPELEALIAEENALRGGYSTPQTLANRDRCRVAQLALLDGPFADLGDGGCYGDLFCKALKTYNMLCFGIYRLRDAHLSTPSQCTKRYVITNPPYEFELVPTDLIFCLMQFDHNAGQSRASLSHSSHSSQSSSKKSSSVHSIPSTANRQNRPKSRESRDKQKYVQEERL
T1 sequence (Q08460 whole entry): as the sequence (Q08460 whole entry) above
T1 sequence (Q8CAE3 whole entry partner): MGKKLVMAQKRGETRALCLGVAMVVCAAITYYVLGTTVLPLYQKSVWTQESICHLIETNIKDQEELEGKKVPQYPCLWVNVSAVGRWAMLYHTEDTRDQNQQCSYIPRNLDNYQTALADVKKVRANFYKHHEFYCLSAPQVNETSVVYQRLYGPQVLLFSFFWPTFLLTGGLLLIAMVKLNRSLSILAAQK

Usually inhibition stands for the change of the read-out against control, counted positive when it falls. Usually pIC50 stands for −log10 of the IC50, conventionally taken in molar units. For `CC(=O)c1c(O)c(C)c(O)c(Cc2c(O)c3c(c(C(=O)/C=C/c4ccccc4)c2O)OC(C)(C)C=C3)c1O` [rottlerin, 5,7-dihydroxy-2,2-dimethyl-6-(2,4,6-trihydroxy-3-methyl-5-acetylbenzyl)-8-cinnamoyl-I,2-chromene], the “solubility in DMSO” value in series [1] (DMSO) is on record as 100 mM (≈ 51.7 mg/mL). In addition, the solubility in ethanol in series [1] (ethanol) is given as 2 mM (≈ 1.03 mg/mL). Moreover, the T lymphocyte proliferation result in series [2] is reported as “inhibits”. Also, the channel open probability entry is “significant increase” in series [3] (0.5 μM rottlerin, outside-out patches, cultured human VSMC) and “significant increase” in [9] (0.5 μM rottlerin, outside-out patches from HEK cells, absence of ATP). In [3] (rottlerin 0.5 μM local perfusion, +60 mV), the “Po and open dwell time” value was “increasing Po and open dwell time; also recorded: significantly increased”. The figures for the inhibition in series [4] and in series [5] were 62% and 73%, respectively. Moreover, the pIC50 in series [6] is 5.22 to 5.52. In addition, the BK currents entry in series [7] was “significantly activated”. The fertility rate entry in series [8] and in [12] was “reduce the fertility rate” in each case. The “experiments in which activation was found” value in [9] (rottlerin 0.5 μM bath application, outside-out patch, +30 mV, n=18) amounted to 100%. Besides, the channel conductance result in [9] (rottlerin 0.5 μM, outside-out, 0 Ca2+) is reported as “does not significantly change”. The “effect on PKCα activity” value in series [10] is recorded as “virtually no effect”. Besides, in series [11], the “capacity of GLAST” value is listed as “decrease the capacity”. In addition, the “β-agonist mediated relaxation of the airway” value in [13] (Rottlerin (5 μg/g) in combination with Isoproterenol (2.5 μg/g), tail vein) was “increased β-agonist mediated relaxation of the airway”. For the same compound, in [13] (single I.V. administration), the “time to reduction of AHR” value was at most 5 min. In addition, the “airway resistance (RL)” value in series [13] (single dose 5 μg/g I.V. 5 minutes before measurement, OVA-sensitized mice) is listed as “significant decrease in their RL; also recorded: significantly reduced airway resistance”.
